For experiment [1], the target named is Somatostatin receptor type 1 (Homo sapiens, UniProt P30872). Nature of the experiment: Binding affinity at human Somatostatin receptor type 1 by [125I][Leu8,D-Trp22,Tyr25]SRIF-28 displacement.
The target in experiment [2] is Somatostatin receptor type 2 (Homo sapiens, UniProt P30874). Nature of the experiment: Binding affinity at human Somatostatin receptor type 2 by [125I][Leu8,D-Trp22,Tyr25]SRIF-28 displacement.
Experiment [3] deals with Somatostatin receptor type 5 (Homo sapiens, UniProt P35346). Nature of the experiment: Binding affinity at human Somatostatin receptor type 5 by [125I][Leu8,D-Trp22,Tyr25]SRIF-28 displacement.
Sequence of Somatostatin receptor type 5 (P35346 whole entry): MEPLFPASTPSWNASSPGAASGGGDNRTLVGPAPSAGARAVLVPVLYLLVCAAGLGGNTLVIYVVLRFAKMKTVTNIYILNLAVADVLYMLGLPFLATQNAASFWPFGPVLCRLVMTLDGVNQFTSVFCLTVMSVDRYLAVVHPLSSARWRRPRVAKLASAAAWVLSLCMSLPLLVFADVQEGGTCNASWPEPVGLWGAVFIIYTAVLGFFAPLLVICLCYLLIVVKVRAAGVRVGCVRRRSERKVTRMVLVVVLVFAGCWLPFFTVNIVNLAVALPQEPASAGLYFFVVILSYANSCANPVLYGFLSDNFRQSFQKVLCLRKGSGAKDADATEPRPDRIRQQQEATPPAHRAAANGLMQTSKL
For experiment [4], the target named is Somatostatin receptor type 3 (Homo sapiens, UniProt P32745). Nature of the experiment: Binding affinity at human Somatostatin receptor type 3 by [125I][Leu8,D-Trp22,Tyr25]SRIF-28 displacement.
Sequence of Somatostatin receptor type 3 (P32745 whole entry): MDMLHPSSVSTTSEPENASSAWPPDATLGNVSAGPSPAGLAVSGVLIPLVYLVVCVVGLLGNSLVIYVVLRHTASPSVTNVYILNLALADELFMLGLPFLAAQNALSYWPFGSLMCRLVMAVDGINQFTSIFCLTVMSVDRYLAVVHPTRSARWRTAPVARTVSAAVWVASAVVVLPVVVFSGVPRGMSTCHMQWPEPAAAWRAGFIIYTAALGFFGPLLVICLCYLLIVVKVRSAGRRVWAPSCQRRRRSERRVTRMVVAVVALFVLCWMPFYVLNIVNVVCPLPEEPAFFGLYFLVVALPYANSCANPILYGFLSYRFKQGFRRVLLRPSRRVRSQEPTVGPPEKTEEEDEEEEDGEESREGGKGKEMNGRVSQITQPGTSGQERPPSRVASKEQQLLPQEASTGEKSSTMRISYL
The target of experiment [5] is Somatostatin receptor type 4 (Homo sapiens, UniProt P31391). Nature of the experiment: Binding affinity at human Somatostatin receptor type 4 by [125I][Leu8,D-Trp22,Tyr25]SRIF-28 displacement.
Sequence of Somatostatin receptor type 4 (P31391 whole entry): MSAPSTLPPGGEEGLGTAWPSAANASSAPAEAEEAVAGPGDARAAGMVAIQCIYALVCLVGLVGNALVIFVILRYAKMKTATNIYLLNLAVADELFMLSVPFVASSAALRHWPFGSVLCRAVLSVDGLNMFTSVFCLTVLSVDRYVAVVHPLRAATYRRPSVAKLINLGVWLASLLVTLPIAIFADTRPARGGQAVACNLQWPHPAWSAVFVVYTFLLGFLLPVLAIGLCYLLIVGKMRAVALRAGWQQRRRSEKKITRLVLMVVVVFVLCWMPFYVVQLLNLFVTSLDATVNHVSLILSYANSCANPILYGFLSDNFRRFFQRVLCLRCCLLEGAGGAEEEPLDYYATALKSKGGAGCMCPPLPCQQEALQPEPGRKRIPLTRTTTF

Sequence of Somatostatin receptor type 2 (P30874 whole entry): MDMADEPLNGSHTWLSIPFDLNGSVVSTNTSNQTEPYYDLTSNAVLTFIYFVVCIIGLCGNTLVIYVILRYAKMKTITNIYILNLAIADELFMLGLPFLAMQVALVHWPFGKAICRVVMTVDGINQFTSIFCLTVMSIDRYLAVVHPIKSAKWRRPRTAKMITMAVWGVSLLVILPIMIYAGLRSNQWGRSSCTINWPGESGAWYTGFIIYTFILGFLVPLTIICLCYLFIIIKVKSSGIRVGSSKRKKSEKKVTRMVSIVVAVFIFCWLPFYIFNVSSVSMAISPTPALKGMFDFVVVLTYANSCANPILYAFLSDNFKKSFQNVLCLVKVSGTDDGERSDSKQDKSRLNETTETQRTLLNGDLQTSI
Sequence of Somatostatin receptor type 1 (P30872 whole entry): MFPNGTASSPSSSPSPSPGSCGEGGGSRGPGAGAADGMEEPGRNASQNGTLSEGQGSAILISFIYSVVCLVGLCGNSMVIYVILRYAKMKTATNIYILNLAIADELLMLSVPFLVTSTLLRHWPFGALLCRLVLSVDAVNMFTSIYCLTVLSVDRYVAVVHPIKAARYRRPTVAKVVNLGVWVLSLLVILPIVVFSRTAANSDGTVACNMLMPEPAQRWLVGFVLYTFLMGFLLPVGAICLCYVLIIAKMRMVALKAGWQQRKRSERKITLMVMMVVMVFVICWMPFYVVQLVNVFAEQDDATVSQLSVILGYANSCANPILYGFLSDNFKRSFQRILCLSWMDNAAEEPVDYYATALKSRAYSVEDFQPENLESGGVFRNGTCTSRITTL

One may read the IC50 as the concentration that inhibits the measured activity by half. A low value points to greater potency in that assay. With `C[C@@H](O)[C@@H]1NC(=O)[C@H](CCCCN)NC(=O)[C@@H]([C@@H](C)c2ccc3ccccc3c2)NC(=O)[C@H](Cc2ccc(N)cc2)NC(=O)[C@H](Cc2ccccc2)NC(=O)[C@H](NC(=O)[C@@H](N)Cc2ccc(O)cc2)CSSC[C@@H](C(=O)O)NC(=O)[C@H](Cc2ccccc2)NC1=O`, the IC50 in experiment [1] is > 1000 nM; in experiment [2], 204 nM; in experiment [3], 127 nM; in experiment [4], 171 nM; in experiment [5], 9.8 nM.
In the same order, the values of `C[C@H](c1ccc2ccccc2c1)[C@@H]1NC(=O)[C@H](Cc2ccc(N)cc2)NC(=O)[C@H](Cc2ccccc2)NC(=O)[C@H](NC(=O)[C@@H](N)Cc2ccc(O)cc2)CSSC[C@@H](C(=O)O)NC(=O)[C@H](Cc2ccccc2)NC(=O)[C@H]([C@@H](C)O)NC(=O)[C@H](CCCCN)NC1=O` are > 1000 nM, 474 nM, > 1000 nM, 595 nM and 61 nM.
As for `COC(=O)[C@H](CCCN=C(N)N)NC(=O)CCCc1c(-c2ccccc2)[nH]c2c(F)cc(F)cc12`, the half-maximal inhibitory concentration (IC50) in experiment [2] and in experiment [4] was > 10000 nM in each case.
With `C[C@@H](O)[C@H]1NC(=O)[C@H](CCCCN)NC(=O)[C@@H]([C@@H](C)c2ccc3ccccc3c2)NC(=O)[C@H](Cc2ccccc2)NC(=O)[C@@H](Cc2ccccc2)NC(=O)[C@H](N)CSSC[C@@H](C(=O)O)NC(=O)[C@H](Cc2ccc(O)cc2)NC1=O`, the IC50 in experiment [1] is > 1000 nM; in experiment [2] it was 357 nM; in experiment [3], 700 nM; in experiment [4] it was 325 nM; in experiment [5], 11.8 nM.
`C[C@H](c1ccc2ccccc2c1)[C@H]1NC(=O)[C@H](Cc2ccc(O)cc2)NC(=O)[C@@H](Cc2ccccc2)NC(=O)[C@H](N)CSSC[C@@H](C(=O)O)NC(=O)[C@H](Cc2ccccc2)NC(=O)[C@@H]([C@@H](C)O)NC(=O)[C@H](CCCCN)NC1=O`: the IC50 was > 10000 nM in experiment [1]; > 10000 nM in experiment [2]; > 10000 nM in experiment [3]; > 1000 nM in experiment [4]; > 1000 nM in experiment [5].
For `C[C@@H](O)[C@@H]1NC(=O)[C@H](CCCCN)NC(=O)[C@@H]([C@@H](C)c2ccc3ccccc3c2)NC(=O)[C@H](Cc2ccc(O)cc2)NC(=O)[C@H](Cc2ccccc2)NC(=O)[C@@H](N)CSSC[C@@H](C(=O)O)NC(=O)[C@H](Cc2ccccc2)NC1=O`, the IC50 in experiment [1] is > 1000 nM; in experiment [2], > 1000 nM; in experiment [3], > 1000 nM; in experiment [4], > 10000 nM; in experiment [5] it was 105 nM.
As to `C[C@@H](O)[C@H]1NC(=O)[C@H](CCCCN)NC(=O)[C@@H]([C@@H](C)c2ccc3ccccc3c2)NC(=O)[C@H](Cc2ccc(N)cc2)NC(=O)[C@@H](Cc2ccccc2)NC(=O)[C@H](N)CSSC[C@@H](C(=O)O)NC(=O)[C@H](Cc2ccccc2)NC1=O`, the concentration for half-maximal inhibition (IC50) in experiment [1] is > 10000 nM; in experiment [2] it was 575 nM; in experiment [3] it was > 10000 nM; in experiment [4], > 1000 nM; in experiment [5], 6.9 nM.
As for `C[C@H](c1ccc2ccccc2c1)[C@@H]1NC(=O)[C@H](Cc2ccc(O)cc2)NC(=O)[C@H](Cc2ccccc2)NC(=O)[C@@H](N)CSSC[C@@H](C(=O)O)NC(=O)[C@H](Cc2ccccc2)NC(=O)[C@H]([C@@H](C)O)NC(=O)[C@H](CCCCN)NC1=O`, the IC50 in experiment [1] was found to be 410 nM; in experiment [2], 30 nM; in experiment [3], 17.5 nM; in experiment [4], 18 nM; in experiment [5] it was 2.2 nM.
In the same order, the values of `C[C@H](c1ccc2ccccc2c1)[C@@H]1NC(=O)[C@H](Cc2ccc(N)cc2)NC(=O)[C@@H](Cc2ccccc2)NC(=O)[C@H](N)CSSC[C@@H](C(=O)O)NC(=O)[C@H](Cc2ccccc2)NC(=O)[C@@H]([C@@H](C)O)NC(=O)[C@H](CCCCN)NC1=O` are > 1000 nM, 102 nM, 101 nM, 186 nM and 8.7 nM.
For `C[C@@H](O)[C@@H]1NC(=O)[C@H](CCCCN)NC(=O)[C@@H]([C@@H](C)c2ccc3ccccc3c2)NC(=O)[C@H](Cc2ccc(O)cc2)NC(=O)[C@H](Cc2ccccc2)NC(=O)[C@H](N)CSSC[C@@H](C(=O)O)NC(=O)[C@H](Cc2ccccc2)NC1=O`, in experiment [5], the IC50 stood at 0.53 nM.
Turning to `C[C@H](c1ccc2ccccc2c1)[C@@H]1NC(=O)[C@H](Cc2ccccc2)NC(=O)[C@@H](Cc2ccccc2)NC(=O)[C@H](N)CSSC[C@@H](C(=O)O)NC(=O)[C@H](Cc2ccc(O)cc2)NC(=O)[C@@H]([C@@H](C)O)NC(=O)[C@H](CCCCN)NC1=O`, the half-inhibitory concentration (IC50) in experiment [1] is > 1000 nM; in experiment [2] it was 16 nM; in experiment [3], 47 nM; in experiment [4], 12 nM; in experiment [5], 9.2 nM.
In the same order, the values of `C[C@@H](O)[C@@H]1NC(=O)[C@H](CCCCN)NC(=O)[C@H]([C@@H](C)c2ccc3ccccc3c2)NC(=O)[C@H](Cc2ccc(O)cc2)NC(=O)[C@H](Cc2ccccc2)NC(=O)[C@@H](N)CSSC[C@@H](C(=O)O)NC(=O)[C@H](Cc2ccccc2)NC1=O` are > 1000 nM, 110 nM, 147 nM, 600 nM and 2.1 nM.
